From patent US12208088B2 (Genentech, Inc., priority 2018, dated 2025) come the findings set out here.

The target in this assay is HPK1 (Homo sapiens (Human), UniProt Q92918). As to the kind of experiment: HPK1 Lantha binding assay ("Lanth"). As to conditions: binding assays; Morrison Ki fit. In outline: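 Ki values are from Morrison-equation fitting of 665/615 nm TR-FRET signals, taking enzyme level, tracer level and tracer Kd into account. The assay mix held HPK1 (2 nM), Eu-anti-GST antibody (2 nM) and Tracer222 (15 nM). Incubations were two 1 h steps at 23 °C, on 5-fold serial compound dilutions.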
Chain of HPK1 (Q92918 1-346 limits assumed): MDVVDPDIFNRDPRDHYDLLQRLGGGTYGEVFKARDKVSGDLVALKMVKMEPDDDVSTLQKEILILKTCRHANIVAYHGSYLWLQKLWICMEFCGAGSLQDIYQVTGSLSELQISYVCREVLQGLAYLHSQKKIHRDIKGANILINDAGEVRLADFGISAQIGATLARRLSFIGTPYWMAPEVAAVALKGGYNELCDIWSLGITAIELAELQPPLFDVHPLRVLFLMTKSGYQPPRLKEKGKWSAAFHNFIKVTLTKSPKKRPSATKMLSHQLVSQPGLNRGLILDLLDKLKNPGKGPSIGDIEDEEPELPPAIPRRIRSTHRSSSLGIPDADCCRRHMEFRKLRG

What is called Ki is a dissociation constant, usually derived from enzyme kinetics or from competition with a known ligand. Read a low Ki as tighter binding. Compound `CN(C)C(=O)c1c(N)ccc(-c2cnc3c(c2Cl)[C@]2(CC[C@H](n4nccc4C(F)(F)F)C2)CN3)c1F` [Compound 169a, 6-Amino-3-((1R,3S)-4′-chloro-3-(5-(trifluoromethyl)-1H-pyrazol-1-yl)-1′,2′-dihydrospiro[cyclopentane-1,3′-pyrrolo[2,3-b]pyridin]-5′-yl)-2-fluoro-N,N-dimethylbenzamide] returned a Ki of 54 nM.

Regarding `O=C(c1cccc(-c2cnc3c(c2)C2(CC2)CN3)c1F)N1CCc2ccccc21` [Compound 172, (3-(1′,2′-dihydrospiro[cyclopropane-1,3′-pyrrolo[2,3-b]pyridin]-5′-yl)-2-fluorophenyl)(indolin-1-yl)methanone], the affinity, expressed as Ki, was 319 nM.

The compound `O=C(c1cccc(-c2cnc3c(c2)C2(CC2)CN3)c1F)N1CCc2ccncc21` [Compound 176, (2,3-dihydro-1H-pyrrolo[2,3-c]pyridin-1-yl)(3-(1′,2′-dihydrospiro[cyclopropane-1,3′-pyrrolo[2,3-b]pyridin]-5′-yl)-2-fluorophenyl)methanone] had an inhibition constant (Ki) of 127 nM.

`OCc1ccc(-c2cnc3c(c2Cl)C2(CC=CC2)CN3)cc1` [Compound 181, (4-(4′-Chloro-1′,2′-dihydrospiro[cyclopentane-1,3′-pyrrolo[2,3-b]pyridin]-3-en-5′-yl)phenyl)methanol]: the inhibition constant Ki was 198 nM.

`CC(C)(O)c1ccc(-c2cnc3c(c2Cl)C2(CC=CC2)CN3)cc1` [Compound 182, 2-(4-(4′-Chloro-1′,2′-dihydrospiro[cyclopentane-1,3′-pyrrolo[2,3-b]pyridin]-3-en-5′-yl)phenyl)propan-2-ol]: the inhibitory constant (Ki) amounted to 829 nM.

In the case of `CS(=O)(=O)c1cccc(-c2cnc3c(c2Cl)C2(CC=CC2)CN3)c1` [Compound 183], the Ki came out at 30.3 nM.

Consider `CCS(=O)(=O)c1cccc(-c2cnc3c(c2Cl)C2(CC=CC2)CN3)c1` [Compound 184, 4′-Chloro-5′-(3-(ethylsulfonyl)phenyl)-1′,2′-dihydrospiro[cyclopentane-1,3′-pyrrolo[2,3-b]pyridin]-3-ene], for which the affinity, expressed as Ki, was 50.3 nM.

Regarding `CNS(=O)(=O)c1cccc(-c2cnc3c(c2Cl)C2(CC=CC2)CN3)c1` [Compound 185, 3-(4′-Chloro-1′,2′-dihydrospiro[cyclopentane-1,3′-pyrrolo[2,3-b]pyridin]-3-en-5′-yl)-N-methylbenzenesulfonamide], the affinity, expressed as Ki, was 75.8 nM.

In turn, `CS(=O)(=O)c1ccc(-c2cnc3c(c2Cl)C2(CC=CC2)CN3)cc1` [Compound 186, 4′-Chloro-5′-(4-(methylsulfonyl)phenyl)-1′,2′-dihydrospiro[cyclopentane-1,3′-pyrrolo[2,3-b]pyridin]-3-ene] yielded a Ki of 276 nM.

Turning to `CCS(=O)(=O)c1ccc(-c2cnc3c(c2Cl)C2(CC=CC2)CN3)cc1` [Compound 187, 4′-Chloro-5′-(4-(ethylsulfonyl)phenyl)-1′,2′-dihydrospiro[cyclopentane-1,3′-pyrrolo[2,3-b]pyridin]-3-ene], the inhibitory constant (Ki) came out at 300 nM.

As for `CNS(=O)(=O)c1ccc(-c2cnc3c(c2Cl)C2(CC=CC2)CN3)cc1` [Compound 188, 4-(4′-Chloro-1′,2′-dihydrospiro[cyclopentane-1,3′-pyrrolo[2,3-b]pyridin]-3-en-5′-yl)-N-methylbenzenesulfonamide], the Ki is 210 nM.

The compound `CCNS(=O)(=O)c1ccc(-c2cnc3c(c2Cl)C2(CC=CC2)CN3)cc1` [Compound 189, 4-(4′-Chloro-1′,2′-dihydrospiro[cyclopentane-1,3′-pyrrolo[2,3-b]pyridin]-3-en-5′-yl)-N-ethylbenzenesulfonamide] registered a Ki of 315 nM.

For `N#Cc1cccc(-c2cnc3c(c2Cl)C2(CC=CC2)CN3)c1` [Compound 190, 3-(4′-Chloro-1′,2′-dihydrospiro[cyclopentane-1,3′-pyrrolo[2,3-b]pyridin]-3-en-5′-yl)benzonitrile], the Ki came to 359 nM.

In the case of `CN(C)C(=O)c1c(N)ccc(-c2cnc3c(c2Cl)[C@]2(CC[C@@](C)(O)CC2)CN3)c1F` [Compound 194a, 6-Amino-3-((1r,4r)-4′-chloro-4-hydroxy-4-methyl-1′,2′-dihydrospiro[cyclohexane-1,3′-pyrrolo[2,3-b]pyridin]-5′-yl)-2-fluoro-N,N-dimethylbenzamide], the affinity corresponds to a Ki of 30.4 nM.

As for `CN(C)C(=O)c1c(N)ccc(-c2cnc3c(c2Cl)[C@]2(CC[C@](C)(O)CC2)CN3)c1F` [Compound 194b, 6-Amino-3-((1s,4s)-4′-chloro-4-hydroxy-4-methyl-1′,2′-dihydrospiro[cyclohexane-1,3′-pyrrolo[2,3-b]pyridin]-5′-yl)-2-fluoro-N,N-dimethylbenzamide], the inhibitory constant (Ki) was found to be 8.36 nM.

In turn, `CN(C)C(=O)c1c(N)ccc(-c2cnc3c(c2Cl)C2(CCCCC2)CN3)c1F` [Compound 200, 6-Amino-3-(4′-chloro-1′,2′-dihydrospiro[cyclohexane-1,3′-pyrrolo[2,3-b]pyridin]-5′-yl)-2-fluoro-N,N-dimethylbenzamide] yielded a Ki of 4.76 nM.

Regarding `O=S(=O)(c1ccc(-c2cnc3c(c2Cl)C2(CC=CC2)CN3)cc1)n1cccn1` [Compound 203, 5′-(4-((1H-Pyrazol-1-yl)sulfonyl)phenyl)-4′-chloro-1′,2′-dihydrospiro[cyclopentane-1,3′-pyrrolo[2,3-b]pyridin]-3-ene], the Ki is 885 nM.

As to `OCC1(c2ccc(-c3cnc4c(c3Cl)C3(CC=CC3)CN4)cc2)CC1` [Compound 204, (1-(4-(4′-Chloro-1′,2′-dihydrospiro[cyclopentane-1,3′-pyrrolo[2,3-b]pyridin]-3-en-5′-yl)phenyl)cyclopropyl)methanol], the affinity corresponds to a Ki of 285 nM.

Turning to `CN(C)C(=O)c1ccc(-c2cnc3c(c2Cl)C2(CC=CC2)CN3)cc1F` [Compound 205, 4-(4′-Chloro-1′,2′-dihydrospiro[cyclopentane-1,3′-pyrrolo[2,3-b]pyridin]-3-en-5′-yl)-2-fluoro-N,N-dimethylbenzamide], the Ki came to 267 nM.

As for `CN(C)C(=O)c1ccc(-c2cnc3c(c2Cl)C2(CC=CC2)CN3)c(F)c1` [Compound 206, 4-(4′-Chloro-1′,2′-dihydrospiro[cyclopentane-1,3′-pyrrolo[2,3-b]pyridin]-3-en-5′-yl)-3-fluoro-N,N-dimethylbenzamide], the Ki was found to be 436 nM.

On to `O=S(=O)(Nc1ccc(-c2cnc3c(c2Cl)C2(CC=CC2)CN3)cc1)C1CC1` [Compound 207, N-(4-(4′-Chloro-1′,2′-dihydrospiro[cyclopentane-1,3′-pyrrolo[2,3-b]pyridin]-3-en-5′-yl)phenyl)cyclopropanesulfonamide], for which the affinity, expressed as Ki, was 87 nM.

`O=S1(=O)CCCN1c1ccc(-c2cnc3c(c2Cl)C2(CC=CC2)CN3)cc1` [Compound 208, 2-(4-(4′-Chloro-1′,2′-dihydrospiro[cyclopentane-1,3′-pyrrolo[2,3-b]pyridin]-3-en-5′-yl)phenyl)isothiazolidine 1,1-dioxide] gave a Ki of 201 nM.

`O=S(=O)(Nc1cccc(-c2cnc3c(c2Cl)C2(CC=CC2)CN3)c1)C1CC1` [Compound 209, N-(3-(4′-Chloro-1′,2′-dihydrospiro[cyclopentane-1,3′-pyrrolo[2,3-b]pyridin]-3-en-5′-yl)phenyl)cyclopropanesulfonamide] returned a Ki of 199 nM.

Compound `CS(=O)(=O)Nc1cccc(-c2cnc3c(c2Cl)C2(CC=CC2)CN3)c1` [Compound 210, N-(3-(4′-Chloro-1′,2′-dihydrospiro[cyclopentane-1,3′-pyrrolo[2,3-b]pyridin]-3-en-5′-yl)phenyl)methanesulfonamide] had an inhibition constant (Ki) of 70.8 nM.

`CC(=O)NCc1cccc(-c2cnc3c(c2Cl)C2(CC=CC2)CN3)c1` [Compound 211, N-(3-(4′-Chloro-1′,2′-dihydrospiro[cyclopentane-1,3′-pyrrolo[2,3-b]pyridin]-3-en-5′-yl)benzyl)acetamide] came in with an inhibition constant (Ki) of 145 nM.

Compound `CC(=O)NCc1ccc(-c2cnc3c(c2Cl)C2(CC=CC2)CN3)cc1` [Compound 212, N-(4-(4′-Chloro-1′,2′-dihydrospiro[cyclopentane-1,3′-pyrrolo[2,3-b]pyridin]-3-en-5′-yl)benzyl)acetamide] showed an inhibition constant Ki of 112 nM.

`CC(=O)NCCc1ccc(-c2cnc3c(c2Cl)C2(CC=CC2)CN3)cc1` [Compound 213, N-(4-(4′-chloro-1′,2′-dihydrospiro[cyclopentane-1,3′-pyrrolo[2,3-b]pyridin]-3-en-5′-yl)phenethyl)acetamide] came in with a Ki of 286 nM.

On to `O=C(NCCO)c1ccc(-c2cnc3c(c2Cl)C2(CC=CC2)CN3)cc1` [Compound 214, 4-(4′-Chloro-1′,2′-dihydrospiro[cyclopentane-1,3′-pyrrolo[2,3-6]pyridin]-3-en-5′-yl)-N-(2-hydroxyethyl)benzamide], for which the Ki turned out to be 340 nM.

Regarding `Clc1c(-c2ccc(-n3cccn3)cc2)cnc2c1C1(CC=CC1)CN2` [Compound 215, 5′-(4-(1H-Pyrazol-1-yl)phenyl)-4′-chloro-1′,2′-dihydrospiro[cyclopentane-1,3′-pyrrolo[2,3-b]pyridin]-3-ene], the Ki was determined as 676 nM.

In the case of `OCc1ccc(-c2cnc3c(c2Cl)C2(CC=CC2)CN3)c(F)c1` [Compound 216, (4-(4′-Chloro-1′,2′-dihydrospiro[cyclopentane-1,3′-pyrrolo[2,3-b]pyridin]-3-en-5′-yl)-3-fluorophenyl)methanol], the Ki is 330 nM.

In the case of `CN(C)S(=O)(=O)Nc1cccc(-c2cnc3c(c2Cl)C2(CC=CC2)CN3)c1` [Compound 218, N-(3-(4′-Chloro-1′,2′-dihydrospiro[cyclopentane-1,3′-pyrrolo[2,3-b]pyridin]-3-en-5′-yl)phenyl)-N′,N′-dimethylsulfamide], affinity was put at a Ki of 230 nM.

As to `OCc1cccc(-c2cnc3c(c2Cl)C2(CC=CC2)CN3)c1F` [Compound 219, (3-(4′-Chloro-1′,2′-dihydrospiro[cyclopentane-1,3′-pyrrolo[2,3-b]pyridin]-3-en-5′-yl)-2-fluorophenyl)methanol], the affinity corresponds to a Ki of 478 nM.

With `Clc1c(-c2ccc(COC3CCOCC3)cc2)cnc2c1C1(CC=CC1)CN2` [Compound 220, 4′-Chloro-5′-(4-(((tetrahydro-2H-pyran-4-yl)oxy)methyl)phenyl)-1′,2′-dihydrospiro[cyclopentane-1,3′-pyrrolo[2,3-b]pyridin]-3-ene], the inhibitory constant (Ki) is 308 nM.
